EP4748839A1 (CSPC Zhongqi Pharmaceutical Technology (Shijiazhuang) Co., …, priority 2023, dated 2025)

Target: T1, GLP-1R (Homo sapiens, UniProt P43220)
T1 construct: expressed in transfected cells
Test: GLP-1R agonistic effect in GLP1R-cAmp-Luc cells (luciferase reporter; titled 'Enzymatic assay')
Type: cell-based
Details: for EC50: 4 hours incubation, firefly luciferin signal; for EC50 of Positive reference / EC50 of Compound of the Present Application: Positive reference is PF-06882961
Experimental: The GLP-1R agonistic effects of the test compounds were determined using GLP1R-cAmp-Luc cells. 1) The test compound was dissolved in DMSO and mixed well until the test compound was completely dissolved. The test compounds were dissolved in DMSO to prepare 10 mM stock solutions. All compounds were diluted with DMEM medium (high sugar, Puromycin^+, Hygromycin B^+) to an initial concentration of 1250 nM, and then subjected to 5-fold serial dilution to a total of 7 concentration gradients. The GLP1R-cAmp-Luc cells were seeded in white-wall 96-well cell culture plates at a density of 1×10^5/mL, with 90 µL cell suspension per well; the test compound at each of the 7 concentration gradients was added at 10 µL per well, with the actual initial working concentration of 125 nM; and the cells were placed in a 37 °C, 5% CO2 cell incubator for 4 hours; 2) 100 µL of luciferin potassium salt solution diluted to 300 µg/mL in PBS was added to each well at a working concentration of 150 µg/mL and incubated at room temperature for 30 minutes; 3) fluorescence signals of firefly luciferin were measured with a multifunctional microplate reader (PerkinElmer, Nivo); and the fluorescence values were processed using GraphPad Prism software to calculate EC50 values.

T1 sequence (P43220 24-463, species assumed): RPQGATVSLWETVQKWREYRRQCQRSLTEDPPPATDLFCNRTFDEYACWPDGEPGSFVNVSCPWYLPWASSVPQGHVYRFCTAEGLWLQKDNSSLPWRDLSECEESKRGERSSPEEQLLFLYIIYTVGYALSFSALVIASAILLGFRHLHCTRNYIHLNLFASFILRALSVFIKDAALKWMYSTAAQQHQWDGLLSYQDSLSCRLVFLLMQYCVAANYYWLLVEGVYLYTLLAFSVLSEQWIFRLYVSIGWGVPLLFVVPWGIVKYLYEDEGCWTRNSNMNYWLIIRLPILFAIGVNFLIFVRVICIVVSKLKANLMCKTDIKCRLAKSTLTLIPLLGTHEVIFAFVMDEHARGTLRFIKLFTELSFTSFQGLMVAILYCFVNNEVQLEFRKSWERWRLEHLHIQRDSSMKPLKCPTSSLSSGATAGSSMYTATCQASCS

Row | SMILES | EC50 | EC50 of Positive reference / EC50 of Compound of the Present Application
1 | COc1cc(C(=O)O)cc2c1nc(Cc1c(F)cc(-c3ccc(Br)c(OCc4ccc(Cl)cc4F)n3)c3c1CCO3)n2C[C@@H]1CCO1 [Compound 109, (S)-2-((7-(5-bromo-6-((4-chloro-2-fluorobenzyl)oxy)pyridin-2-yl)-5-fluoro-2,3-dihydrobenzofuran-4-yl)methyl)-4-methoxy-1-(oxetan-2-ylmethyl)-1H-benzo[d]imidazole-6-carboxylic acid] | 1 to 5 nM | 
2 | CCn1cncc1Cn1c(Cc2c(F)cc(-c3cccc(OCc4ccc(Cl)cc4F)n3)c3c2CCO3)nc2c(OC)cc(C(=O)O)cc21 [Compound 111] | 1 to 5 nM | 
3 | COc1cc(C(=O)O)cc2c1nc(Cc1c(F)cc(-c3ccnc(OCc4ccc(Cl)cc4F)n3)c3c1CCO3)n2CC1(CF)CC1 [Compound 112, 2-((7-(2-((4-Chloro-2-fluorobenzyl)oxy)pyrimidin-4-yl)-5-fluoro-2,3-dihydrobenzofuran-4-yl)methyl)-1-((1-(fluoromethyl)cyclopropyl)methyl)-4-methoxy-1H-benzo[d]imidazole-6-carboxylic acid] | 1 to 5 nM | 
4 | CC(C)Oc1cc(C(=O)O)cc2c1nc(Cc1c(F)cc(-c3ccnc(OCc4ccc(Cl)cc4F)n3)c3c1CCO3)n2C[C@@H]1CCO1 [Compound 119, (S)-2-((7-(2-((4-chloro-2-fluorobenzyl)oxy)-pyrimidin-4-yl)-5-fluoro-2,3-dihydrobenzofuran-4-yl)methyl)-4-isopropoxy-1-(oxetan-2-ylmethyl)-1H-benzo[d]imidazole-6-carboxylic acid] | 1 to 5 nM | 
5 | CCOc1cc(C(=O)O)cc2c1nc(Cc1c(F)cc(-c3ccc(F)c(OCc4ccc(Cl)cc4F)n3)c3c1CCO3)n2C[C@@H]1CCO1 [Compound 122, (S)-2-((7-(6-((4-chloro-2-fluorobenzyl)oxy)-5-fluoropyridin-2-yl)-5-fluoro-2,3-dihydrobenzofuran-4-yl)methyl)-4-ethoxy-1-(oxetan-2-ylmethyl)-1H-benzo[d]imidazole-6-carboxylic acid] | 1 to 5 nM | Ratio ≥10
6 | O=C(O)c1ccc2nc(Cc3c(F)cc(-c4ccnc(OCc5ccc(Cl)cc5F)n4)c4c3CCO4)n(C[C@@H]3CCO3)c2c1 [Compound 124, (S)-2-((7-(2-((4-chloro-2-fluorobenzyl)oxy)pyrimidin-4-yl)-5-fluoro-2,3-dihydrobenzofuran-4-yl)methyl)-1-(oxetan-2-ylmethyl)-1H-benzo[d]imidazole-6-carboxylic acid] | ≤ 1 nM | 
7 | COc1cc(C(F)(F)F)ccc1COc1ccnc(-c2cc(F)c(Cc3nc4c(OC)cc(C(=O)O)cc4n3C[C@@H]3CCO3)c3c2OCC3)n1 [Compound 125, (S)-2-((7-(4-((2-methoxy-4-(trifluoromethyl)benzyl)oxy)pyrimidin-2-yl)-5-fluoro-2,3-dihydrobenzofuran-4-yl)methyl)-4-methoxy-1-(oxetan-2-ylmethyl)-1H-benzo[d]imidazole-6-carboxylic acid] | ≤ 1 nM | Ratio ≥10
8 | COc1cc(C(=O)O)cc2c1nc(Cc1c(F)cc(-c3ccc(F)c(OCc4ccc(C5COC5)cc4F)n3)c3c1CCO3)n2C[C@@H]1CCO1 [Compound 126, (S)-2-((7-(5-fluoro-6-((2-fluoro-4-(oxetan-3-yl)benzyl)oxy)pyridin-2-yl)-5-fluoro-2,3-dihydrobenzofuran-4-yl)methyl)-4-methoxy-1-(oxetan-2-ylmethyl)-1H-benzo[d]imidazole-6-carboxylic acid] | ≤ 1 nM | Ratio ≥10

Second part, the molecule after the results:

Row | EC50 | EC50 of Positive reference / EC50 of Compound of the Present Application | SMILES
9 | ≤ 1 nM | Ratio ≥10 | COc1cc(C(F)(F)F)ccc1COc1nccc(-c2cc(F)c(Cc3nc4c(OC)cc(C(=O)O)cc4n3C[C@@H]3CCO3)c3c2OCC3)n1 [Compound 110, (S)-2-((7-(2-((2-methoxy-4-(trifluoromethyl)benzyl)oxy)pyrimidin-4-yl)-5-fluoro-2,3-dihydrobenzofuran-4-yl)methyl)-4-methoxy-1-(oxetan-2-ylmethyl)-1H-benzo[d]imidazole-6-carboxylic acid]
10 | ≤ 1 nM | Ratio ≥10 | COc1cc(C(=O)O)cc2c1nc(Cc1c(F)cc(-c3ccnc(OCc4ccc(Cl)cc4OC(F)F)n3)c3c1CCO3)n2C[C@@H]1CCO1 [Compound 113, (S)-2-((7-(2-((2-difluoromethoxy-4-chlorobenzyl)oxy)pyrimidin-4-yl)-5-fluoro-2,3-dihydrobenzofuran-4-yl)methyl)-4-methoxy-1-(oxetan-2-ylmethyl)-1H-benzo[d]imidazole-6-carboxylic acid]
11 | ≤ 1 nM | Ratio ≥10 | COc1cc(C(=O)O)cc2c1nc(Cc1c(F)cc(-c3ccc(F)c(OCc4ccc(Cl)cc4OC(F)F)n3)c3c1CCO3)n2C[C@@H]1CCO1 [Compound 114]
12 | ≤ 1 nM | Ratio ≥10 | COc1cc(C(=O)O)cc2c1nc(Cc1c(F)cc(-c3ccc(F)c(OCc4ccc(C#N)cc4F)n3)c3c1CCO3)n2C[C@@H]1CCO1 [Compound 115]
13 | ≤ 1 nM | Ratio ≥10 | COc1cc(C(F)(F)F)ccc1COc1nc(-c2cc(F)c(Cc3nc4c(OC)cc(C(=O)O)cc4n3C[C@@H]3CCO3)c3c2OCC3)ccc1F [Compound 116, (S)-2-((7-(5-fluoro-6-((2-methoxy-4-(trifluoromethyl)benzyl)oxy)pyridin-2-yl)-5-fluoro-2,3-dihydrobenzofuran-4-yl)methyl)-4-methoxy-1-(oxetan-2-ylmethyl)-1H-benzo[d]imidazole-6-carboxylic acid]
14 | ≤ 1 nM | Ratio ≥10 | COc1cc(C(=O)O)cc2c1nc(Cc1c(F)cc(-c3nccc(OCc4ccc(Cl)cc4F)n3)c3c1CCO3)n2C[C@@H]1CCO1 [Compound 117, (S)-2-((7-(4-((4-chloro-2-fluorobenzyl)oxy)pyrimidin-2-yl)-5-fluoro-2,3-dihydrobenzofuran-4-yl)methyl)-4-methoxy-1-(oxetan-2-ylmethyl)-1H-benzo[d]imidazole-6-carboxylic acid]
15 | ≤ 1 nM | Ratio ≥10 | COc1cc(C(=O)O)cc2c1nc(Cc1c(F)cc(-c3ccnc(OCc4ccc(C5COC5)cc4F)n3)c3c1CCO3)n2C[C@@H]1CCO1 [Compound 120, (S)-2-((7-(2-((2-fluoro-4-(oxetan-3-yl)benzyl)oxy)pyrimidin-4-yl)-5-fluoro-2,3-dihydrobenzofuran-4-yl)methyl)-4-methoxy-1-(oxetan-2-ylmethyl)-1H-benzo[d]imidazole-6-carboxylic acid]
16 | ≤ 1 nM | Ratio ≥10 | CCOc1cc(C(=O)O)cc2c1nc(Cc1c(F)cc(-c3ccnc(OCc4ccc(Cl)cc4F)n3)c3c1CCO3)n2C[C@@H]1CCO1 [Compound 121, (S)-2-((7-(2-((4-chloro-2-fluorobenzyl)oxy)pyrimidin-4-yl)-5-fluoro-2,3-dihydrobenzofuran-4-yl)methyl)-4-ethoxy-1-(oxetan-2-ylmethyl)-1H-benzo[d]imidazole-6-carboxylic acid]
